According to ChEMBL document CHEMBL3885881, “DrugMatrix”:

Species: Rattus norvegicus
Test: DrugMatrix - Regimen: Daily Repeat
Format: toxicity, organism-based, Sprague-Dawley
Design: regimen Daily Repeat, gender Male, age 6-8 weeks
Conditions: in vivo, po, route oral GAVAGE, vehicle 100 % WATER; for ABSOLUTE BASOPHIL / ABSOLUTE EOSINOPHIL / ABSOLUTE LYMPHOCYTE / ABSOLUTE MONOCYTE / ABSOLUTE SEGMENTED NEUTROPHIL / BASOPHIL / EOSINOPHIL / ERYTHROCYTE COUNT / HEMATOCRIT / HEMOGLOBIN / LEUKOCYTE COUNT / LYMPHOCYTE / MEAN CORPUSCULAR HEMOGLOBIN / MEAN CORPUSCULAR HEMOGLOBIN CONCENTRATION / MEAN CORPUSCULAR VOLUME / MONOCYTE / NEUTROPHIL / NUCLEATED RED BLOOD CELLS / PLATELET COUNT: tissue Blood; for ALANINE AMINOTRANSFERASE / ALBUMIN / ALKALINE PHOSPHATASE / ASPARTATE AMINOTRANSFERASE / BLOOD UREA NITROGEN / CARBON DIOXIDE / CHLORIDE / CHOLESTEROL / CREATINE PHOSPHOKINASE / CREATININE / GLUCOSE / LACTATE DEHYDROGENASE / LIPASE / PHOSPHORUS / POTASSIUM / SODIUM / TOTAL BILIRUBIN / TOTAL PROTEIN / URIC ACID: tissue Plasma
[1] = 0 mg/kg, 72 h, dose level Control, time 3 day
[2] = 0 mg/kg, 120 h, dose level Control, time 5 day
[3] = 300 mg/kg, 72 h, dose level Low, time 3 day

Compound: CC(Cl)(Cl)Cl [TRICHLOROETHANE]
- ABSOLUTE BASOPHIL [1]: 0 CELLS/uL
- ABSOLUTE EOSINOPHIL [1]: 86.33 CELLS/uL
- ABSOLUTE LYMPHOCYTE [1]: 12090.17 CELLS/uL
- ABSOLUTE MONOCYTE [1]: 166.67 CELLS/uL
- ABSOLUTE SEGMENTED NEUTROPHIL [1]: 1090.17 CELLS/uL
- BASOPHIL [1]: 0%
- EOSINOPHIL [1]: 0.67%
- ERYTHROCYTE COUNT [1]: 5.57 x10E6/uL
- HEMATOCRIT [1]: 35.33%
- HEMOGLOBIN [1]: 13.83 G/DL
- LEUKOCYTE COUNT [1]: 13.43 x10E3/uL
- LYMPHOCYTE [1]: 89.83%
- MEAN CORPUSCULAR HEMOGLOBIN [1]: 24.88 pg
- MEAN CORPUSCULAR HEMOGLOBIN CONCENTRATION [1]: 39.15 G/DL
- MEAN CORPUSCULAR VOLUME [1]: 63.52 fL
- MONOCYTE [1]: 1.17%
- NEUTROPHIL [1]: 8.33%
- NUCLEATED RED BLOOD CELLS [1]: 0 /100WBC
- PLATELET COUNT [1]: 1181.33 x10E3/uL
- ALANINE AMINOTRANSFERASE [1]: 48.33 u/L
- ALBUMIN [1]: 4.1 G/DL
- ALKALINE PHOSPHATASE [1]: 395 u/L
- ASPARTATE AMINOTRANSFERASE [1]: 81.83 u/L
- BLOOD UREA NITROGEN [1]: 15.83 mg/dL
- CARBON DIOXIDE [1]: 24.17 mmol/L
- CHLORIDE [1]: 103.83 MEQ/L
- CHOLESTEROL [1]: 63.67 mg/dL
- CREATINE PHOSPHOKINASE [1]: 372.83 u/L
- CREATININE [1]: 0.18 mg/dL
- GLUCOSE [1]: 173.83 mg/dL
- LACTATE DEHYDROGENASE [1]: 188.33 u/L
- LIPASE [1]: 9.5 u/L
- PHOSPHORUS [1]: 11.95 mg/dL
- POTASSIUM [1]: 5.99 MEQ/L
- SODIUM [1]: 144.43 MEQ/L
- TOTAL BILIRUBIN [1]: 0.15 mg/dL
- TOTAL PROTEIN [1]: 5.95 G/DL
- URIC ACID [1]: 1.82 mg/dL
- ABSOLUTE BASOPHIL [2]: 0 CELLS/uL
- ABSOLUTE EOSINOPHIL [2]: 26.67 CELLS/uL
- ABSOLUTE LYMPHOCYTE [2]: 7583.83 CELLS/uL
- ABSOLUTE MONOCYTE [2]: 131.33 CELLS/uL
- ABSOLUTE SEGMENTED NEUTROPHIL [2]: 674.83 CELLS/uL
- BASOPHIL [2]: 0%
- EOSINOPHIL [2]: 0.33%
- ERYTHROCYTE COUNT [2]: 5.78 x10E6/uL
- HEMATOCRIT [2]: 36.48%
- HEMOGLOBIN [2]: 14.03 G/DL
- LEUKOCYTE COUNT [2]: 8.42 x10E3/uL
- LYMPHOCYTE [2]: 89.83%
- MEAN CORPUSCULAR HEMOGLOBIN [2]: 24.3 pg
- MEAN CORPUSCULAR HEMOGLOBIN CONCENTRATION [2]: 38.52 G/DL
- MEAN CORPUSCULAR VOLUME [2]: 63.15 fL
- MONOCYTE [2]: 1.67%
- NEUTROPHIL [2]: 8.17%
- NUCLEATED RED BLOOD CELLS [2]: 0 /100WBC
- PLATELET COUNT [2]: 1186.67 x10E3/uL
- ALANINE AMINOTRANSFERASE [2]: 50.17 u/L
- ALBUMIN [2]: 4.07 G/DL
- ALKALINE PHOSPHATASE [2]: 367.5 u/L
- ASPARTATE AMINOTRANSFERASE [2]: 81.67 u/L
- BLOOD UREA NITROGEN [2]: 16.17 mg/dL
- CARBON DIOXIDE [2]: 32.33 mmol/L
- CHLORIDE [2]: 101.5 MEQ/L
- CHOLESTEROL [2]: 65.33 mg/dL
- CREATINE PHOSPHOKINASE [2]: 255.33 u/L
- CREATININE [2]: 0.17 mg/dL
- GLUCOSE [2]: 139.33 mg/dL
- LACTATE DEHYDROGENASE [2]: 95 u/L
- LIPASE [2]: 10.5 u/L
- PHOSPHORUS [2]: 10.38 mg/dL
- POTASSIUM [2]: 6.11 MEQ/L
- SODIUM [2]: 145.55 MEQ/L
- TOTAL BILIRUBIN [2]: 0.17 mg/dL
- TOTAL PROTEIN [2]: 5.98 G/DL
- URIC ACID [2]: 0.93 mg/dL
- ABSOLUTE BASOPHIL [3]: 0 CELLS/uL
- ABSOLUTE EOSINOPHIL [3]: 37 CELLS/uL
- ABSOLUTE LYMPHOCYTE [3]: 13276 CELLS/uL
- ABSOLUTE MONOCYTE [3]: 236.33 CELLS/uL
- ABSOLUTE SEGMENTED NEUTROPHIL [3]: 1084 CELLS/uL
- BASOPHIL [3]: 0%
- EOSINOPHIL [3]: 0.33%
- ERYTHROCYTE COUNT [3]: 5.75 x10E6/uL
- HEMATOCRIT [3]: 37.23%
- HEMOGLOBIN [3]: 14.1 G/DL
- LEUKOCYTE COUNT [3]: 14.63 x10E3/uL
- LYMPHOCYTE [3]: 90.67%
- MEAN CORPUSCULAR HEMOGLOBIN [3]: 24.53 pg
- MEAN CORPUSCULAR HEMOGLOBIN CONCENTRATION [3]: 37.87 G/DL
- MEAN CORPUSCULAR VOLUME [3]: 64.8 fL
- MONOCYTE [3]: 1.67%
- NEUTROPHIL [3]: 7.33%
- NUCLEATED RED BLOOD CELLS [3]: 0 /100WBC
- PLATELET COUNT [3]: 1274 x10E3/uL
- ALANINE AMINOTRANSFERASE [3]: 52 u/L
- ALBUMIN [3]: 4 G/DL
- ALKALINE PHOSPHATASE [3]: 352.67 u/L
- ASPARTATE AMINOTRANSFERASE [3]: 88.67 u/L
- BLOOD UREA NITROGEN [3]: 16 mg/dL
- CARBON DIOXIDE [3]: 24.67 mmol/L
- CHLORIDE [3]: 102.33 MEQ/L
- CHOLESTEROL [3]: 72 mg/dL
- CREATINE PHOSPHOKINASE [3]: 1076 u/L
- CREATININE [3]: 0.13 mg/dL
- GLUCOSE [3]: 161 mg/dL
- LACTATE DEHYDROGENASE [3]: 188.67 u/L
- LIPASE [3]: 9 u/L
- PHOSPHORUS [3]: 13.77 mg/dL
- POTASSIUM [3]: 6.88 MEQ/L
- SODIUM [3]: 144.3 MEQ/L
- TOTAL BILIRUBIN [3]: 0.2 mg/dL
- TOTAL PROTEIN [3]: 5.83 G/DL
- URIC ACID [3]: 1.93 mg/dL
